Among the data in BindingDB's records for doi:10.1016/s0960-894x(01)00002-6 (Kyushu University, 2001) are IC50 values, retold here.

For the assay, the target named is DNA polymerase I (Escherichia coli) (UniProt P00582). Description: Compound was evaluated for its inhibitory activity against Klenow enzyme.
Chain of DNA polymerase I (Escherichia coli) (P00582 whole entry, looked up): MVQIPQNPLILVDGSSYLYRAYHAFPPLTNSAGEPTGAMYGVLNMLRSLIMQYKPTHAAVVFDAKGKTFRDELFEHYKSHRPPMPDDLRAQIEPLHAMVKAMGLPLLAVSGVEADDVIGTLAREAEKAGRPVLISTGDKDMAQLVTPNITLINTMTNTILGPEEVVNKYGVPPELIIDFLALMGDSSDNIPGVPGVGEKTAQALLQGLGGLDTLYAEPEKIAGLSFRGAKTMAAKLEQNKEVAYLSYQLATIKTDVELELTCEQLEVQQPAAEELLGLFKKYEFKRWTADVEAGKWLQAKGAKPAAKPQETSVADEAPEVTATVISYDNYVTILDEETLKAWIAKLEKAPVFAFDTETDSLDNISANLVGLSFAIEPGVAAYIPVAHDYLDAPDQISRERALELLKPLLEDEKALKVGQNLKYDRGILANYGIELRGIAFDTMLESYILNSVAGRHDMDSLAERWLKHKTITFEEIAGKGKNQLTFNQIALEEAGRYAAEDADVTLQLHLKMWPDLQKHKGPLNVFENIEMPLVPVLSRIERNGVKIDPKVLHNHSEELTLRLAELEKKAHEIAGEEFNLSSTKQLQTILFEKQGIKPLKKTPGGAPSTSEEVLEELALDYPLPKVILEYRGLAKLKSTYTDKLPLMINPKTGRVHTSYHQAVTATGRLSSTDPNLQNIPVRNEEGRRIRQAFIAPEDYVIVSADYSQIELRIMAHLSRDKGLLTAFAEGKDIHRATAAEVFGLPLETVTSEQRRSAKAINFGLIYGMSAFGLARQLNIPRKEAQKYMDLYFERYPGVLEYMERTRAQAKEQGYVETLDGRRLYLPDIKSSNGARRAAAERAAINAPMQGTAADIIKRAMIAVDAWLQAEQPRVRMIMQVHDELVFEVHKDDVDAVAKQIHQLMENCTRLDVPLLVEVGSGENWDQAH
The IC50 is the point on the concentration scale where inhibition reaches its midpoint. The compound `O=C(Cc1cn(CCn2ccc3cc(Cl)ccc32)c2ccccc12)NCCCCCCCCCCCCOP(=O)(O)Oc1cccc(Cl)c1` [Phosphoric acid 12-(2-{1-[2-(5-chloro-indol-1-yl)-ethyl]-1H-indol-3-yl}-acetylamino)-dodecyl ester 3-chloro-phenyl ester; compound with triethyl-amine] came in with a 50% inhibitory concentration (IC50) of 70 µM.

The compound `O=C(Cc1cn(CCn2ccc3cc(Cl)ccc32)c2ccccc12)NCCCCCCCCCCCCOP(=O)(O)OC1CCCCC1` [Phosphoric acid 12-(2-{1-[2-(5-chloro-indol-1-yl)-ethyl]-1H-indol-3-yl}-acetylamino)-dodecyl ester cyclohexyl ester; compound with triethyl-amine] registered a half-inhibitory concentration (IC50) of 101 µM. In turn, `O=C(Cc1cn(CCn2ccc3cc(Cl)ccc32)c2ccccc12)NCCCCCCCCCCCCOP(=O)(O)Oc1ccccc1` [Phosphoric acid 12-(2-{1-[2-(5-chloro-indol-1-yl)-ethyl]-1H-indol-3-yl}-acetylamino)-dodecyl ester phenyl ester; compound with triethyl-amine] yielded an IC50 of 61 µM. This IC50 lies about 1.7-fold lower than the previous one.
